Series [1] concerns wild Mediterranean fruit flies. In words: Wild fly response to ceralure B1 enantiomers, first experiment, Kauai coffee. As to conditions: for Male capture compared with other treatments: 10 mg dosage; for Response of wild flies, Mean ± s.e.: 10 mg, traps serviced every two days.
The subject of a further series is Mediterranean fruit fly. Conditions: field studies from the literature; cited from earlier work.
In series [2] the test system is Mediterranean fruit fly, Ceratitis capitata (Wiedemann). In words: Longevity field test over three weeks, Jackson traps, released sterile flies. The series is classed as in vivo. As to conditions: for Male capture compared with other treatments: 10 mg dose. Here is the method: (§1) Insects: Sterilized Mediterranean fruit fly pupae were obtained from the USDA-ARS-USPBARC rearing facility in Honolulu, Hi. The flies were reared on an artificial diet (Tanaka, N., et al., J. Econ. Entomol., 62: 967-968 (1969)) under standard mass-rearing conditions and sterilized as pupae at a dose of 150 GY and two days before emergence. Flies were shipped by air to Hilo where 150 ml of pupae (both sexes) was placed in 15-gallon Rubbermaid action packers modified by screened panels on the bottoms and sides of the units. The emerged flies were given water, sugar and hydrolyzed yeast protein. Flies were 2-9 days old when tested. Wild populations of medflies were present in coffee orchards on the island of Kauai.
(§2) Bioassays: All tests were conducted using tent-shaped Jackson traps with open ends, a removable sticky insert and a ½ inch cotton wick containing the test chemical (Harris, E. J., et al., J. Econ. Entomol., 64: 62-65 (1971)). All tests were conducted using a randomized complete block design having five traps of each treatment in the block. The tests were replicated at least 5 times.
Longevity tests: Preliminary tests to determine the effectiveness of the different chemical compounds over time were also carried out using sterile flies released in a macadamia nut orchard. In these tests all compounds were applied to the cotton wick at a 10 mg dose. 100 μl of each compound was placed on a ½ inch wick inside a Jackson trap. Traps were serviced weekly for three weeks. Inserts were changed each week and new flies were released but the same compounds were left in the field to age.
(§3) Data analysis: Both male and female medfly were counted on the sticky inserts. […] Data was subjected to analysis of variance (Proc GLM) and the Turkey's test for separation of means values. Significant differences in response were determined at the P=0.05 level. Data were not transformed prior to analysis. Statistical analysis was performed on SAS ver 6.12 (SAS Institute, Cary, N.C.) using a PC. Values presented on the tables are mean values SEM.

The test system is the same in series [3]. In words: Dose-response field test, Jackson traps, released sterile flies. The class given is in vivo. Conditions: for Male capture compared with other treatments: 1 mg, 0.1 mg and 0.01 mg dosages; for Mean male fly capture ± s.e.: 48 hours, released sterile flies. Here is the method: Field attraction of Mediterranean fruit fly, Ceratitis capitata (Wiedemann), to stereoselectively synthesized enantiomers of the ceralure B1 isomer: The attractancy of the two newly synthesized ceralure B1 enantiomers was evaluated against laboratory and wild populations of medfly and the response to these compounds was compared to commercially available trimedlure and ceralure. Field tests using released sterile flies on the island of Hawaii or field tests against wild populations of medfly in commercial coffee plantations on the island of Kauai were carried out to compare the attractancy, dose response and initial persistence of the new molecules and a racemic (50:50) mixture of the two.
as §1, §2
Dose-response tests: 10 mg, 1 mg, 0.1 mg and 0.01 mg doses of each compound (in 100 μl acetone) were tested on ½ inch cotton wicks in Jackson traps. Acetone was used in the control. The treatments were ceralure B1 (1S,2S,5S), ceralure B1 (Racemic), ceralure B1 (1R,2R,5R), trimedlure, ceralure and a blank control. Traps were placed in a macadamia nut orchard on the island of Hawaii near the town of Hilo. Traps were separated by every other tree in every row (approximately 15 meters between traps). Flies (approximately 6,000) were then released by slowly walking between rows while allowing the flies to escape from the opened action packer. Traps were left out for 48 hours after which the traps were collected and brought back to the lab for analysis. Both males and females were counted on the sticky inserts.
as §3

Series [4] deals with wild Mediterranean fruit flies. Nature of the series: Wild fly response, second experiment against standard 2 g trimedlure plug. Conditions: for Male capture compared with other treatments: after 48 hours, 10 mg versus 2 g trimedlure plug.
The conditions of series [5]: known in the literature; cited from earlier work.
The mark [6] stands for this setting: Week 1, 10 mg dose, released sterile flies.
The mark [7] stands for this setting: Week 2, 10 mg dose, same lure aged in field.
Where [8] appears, read: Week 3, 10 mg dose, same lure aged in field.
Setting [9] is: dose .01 mg on cotton wick, N = 25.

Results on six compounds are retold here after patent publication US6375943B1, “Attractant for the mediterranean fruit fly, the method of preparation and method of use” (The United States of America as represented by the …, priority 2000, dated 2002).

Turning to `CCOC(=O)[C@H]1C[C@@H](I)CC[C@@H]1C` (racemic) [B1 Racemic, Ethyl(1SR,2SR,5SR)-5-iodo-2-methylcyclohexane-1-carboxylate], the “Male capture compared with other treatments” value was “significantly higher captures than the B1 (1S,2S,5S) and commercial ceralure” in series [1]; “captured significantly more males than B1 (1S,2S,5S), commercial trimedlure, commercial ceralure and control” in series [2] (after one week); “captured significantly more males than any other compound” in series [2] (after two weeks); “captured significantly more male medflies than B1 (1S,2S,5S), commercial trimedlure, commercial ceralure and (acetone) control” in series [3] (10 mg). Further, in series [1], the “Response of wild flies, Mean ± s.e.” value amounted to 70.8 ± 10 b. The “Relative attractiveness toward the Mediterranean fruit fly” value in the series with Mediterranean fruit fly is recorded as “most active”. Further, the “Male fly capture, mean ± SEM” value came to 274.5 ± 21.8 a in series [2] (setting [6]), 79.6 ± 33.3 a in series [2] (setting [7]) and 4.7 ± 3.7 a in series [2] (setting [8]). Moreover, the “Mean male fly capture ± s.e.” value in series [3] (dose 1 mg on cotton wick) worked out at 376.8 ± 36.7 a; in series [3] (dose 10 mg on cotton wick) it was 365.53 ± 33.7 b; in series [3] (setting [9]), 111 ± 12.2 a; in series [3] (dose .01 mg on cotton wick, N = 25, listed as B1 racemic) it was 111; in series [3] (dose .1 mg on cotton wick) it was 179.67 ± 33.5 b.

With `C[C@H]1C[C@H](Cl)CC[C@@H]1C(=O)OC(C)(C)C` (relative stereo) [(1S, 2S, 4R), 1,1-dimethylethyl-cis-4-chloro-trans-2-methylcyclohexane-1-carboxylate], the “Relative attractiveness toward the Mediterranean fruit fly” value in the series on Mediterranean fruit fly was “most attractive”.

As for `CCOC(=O)[C@@H]1C[C@H](I)CC[C@H]1C` [B1 1R,2R,5R, Ethyl (1R,2R,5R)-5-iodo-2-methylcyclohexane-1-carboxylate], the “Male capture compared with other treatments” value in series [1] is “captured significantly more males than the B1 racemic mixture”; in series [2] (after one week) it was “captured significantly more males than B1 (1S,2S,5S), commercial trimedlure, commercial ceralure and control”; in series [4] it was “captured the most male medflies but not significantly more than the B1 racemic mixture and commercial trimedlure”; in series [4] (listed as B1 (1R,2R,5R) enantiomer) it was “caught more wild flies after two days than the TML plug”; in series [3] (10 mg) it was “captured significantly more male medflies than B1 (1S,2S,5S), commercial trimedlure, commercial ceralure and (acetone) control”. In series [1], the “Response of wild flies, Mean ± s.e.” value is on record as 104.2 ± 13.7 a. Besides, the “Male fly capture, mean ± SEM” value in series [2] (setting [6]) is recorded as 338.9 ± 40.1 a; in series [2] (setting [7]), 69.3 ± 24.9 ab; in series [2] (setting [8]), “.3 ± .3 a”. Also, in series [4] (after an additional 5 days, 10 mg versus 2 g TML plug), the “Flies captured as share of the TML plug baited trap” value is recorded as “approximately 33%”. The “Dose compared to trimedlure to achieve the same trap capture” value in series [3] (0.01 mg versus trimedlure 10 mg, mean values from Table 1) was found to be 1000 times less. Moreover, the “Male capture compared with B1 racemic mixture” value in series [3] (10 mg, 1 mg and 0.1 mg doses) is on record as “captured significantly more males than the B1 racemic mixture”. The “Mean male fly capture ± s.e.” value in series [3] (dose 1 mg on cotton wick) is reported as 473.07 ± 56.6 a; in series [3] (dose 10 mg on cotton wick), 487.27 ± 33 a; in series [3] (setting [9]), 117 ± 14.1 a; in series [3] (dose .01 mg on cotton wick, N = 25, listed as 1R,2R,5R enantiomer), 117; in series [3] (dose .1 mg on cotton wick), 303.07 ± 34.5 a. Also, the “Activity relative to trimedlure at similar doses” value in series [3] (male capture compared to trimedlure, similar doses) is on record as 7-10 times.

On to `CCOC(=O)[C@H]1C[C@@H](I)CC[C@@H]1C` [B1 1S,2S,5S, Ethyl(1S, 2S, 5S)-5-iodo-2-methylcyclohexane-1-carboxylate], for which the “Response of wild flies, Mean ± s.e.” value in series [1] was determined as 40.5 ± 8.3 c. The “Male fly capture, mean ± SEM” value in series [2] (setting [6]) stood at 135.7 ± 33.4 b; in series [2] (setting [7]), 5.5 ± 4.5 b; in series [2] (setting [8]) it was 0 ± 0 a. Also, the “Mean male fly capture ± s.e.” value was found to be 173 ± 42.2 b in series [3] (dose 1 mg on cotton wick), 151.80 ± 25.3 c in series [3] (dose 10 mg on cotton wick), 38.3 ± 6.5 b in series [3] (setting [9]) and 57.20 ± 8.3 c in series [3] (dose .1 mg on cotton wick).

As to `CC1CC(Cl)CCC1C(=O)OC(C)(C)C` (stereo not drawn) [TML-C, 1,1-dimethylethyl-cis-4-chloro-trans-2-methylcyclohexane-1-carboxylate], the “Relative attractiveness toward the Mediterranean fruit fly” value in the series with Mediterranean fruit fly was “most active”.

Consider “ethyl 4 (and 5)-iodo-2-methylcyclohexane-1-carboxylate [Com. Ceralure, reference compound]”, for which the “Response of wild flies, Mean ± s.e.” value in series [1] is on record as 31.8 ± 4.4 c. Besides, the “Relative attractiveness toward the Mediterranean fruit fly” value in the series with Mediterranean fruit fly was “more persistent and potent attractant than TML”. In addition, the “Male fly capture, mean ± SEM” value in series [2] (setting [6]) is 135 ± 16.8 b; in series [2] (setting [7]), 3.1 ± 2.2 b; in series [2] (setting [8]), “.47 ± .27 a”. Also, the “Volatility compared with trimedlure” value in series [5] is recorded as “less volatile than trimedlure”. Moreover, the “Mean male fly capture ± s.e.” value in series [3] (dose 1 mg on cotton wick) was 65.07 ± 9.5 bc; in series [3] (dose 10 mg on cotton wick), 170.47 ± 33.1 c; in series [3] (setting [9]), 23.4 ± 6.3 bc; in series [3] (dose .1 mg on cotton wick), 11.27 ± 4.1 c.
